Test results: patent US20050119301A1, “Treatment of restenosis” (priority 2001, published 2005)

How the values were obtained:
[1] = tested on: LDL; experiment: LDL antioxidation test (CuCl2-initiated LDL oxidation, lag time); assay type: biochemical, human; details: Table 2, 10 μM; for Lag Time: control 20 min
[2] = 45 mg over 5 to 10 weeks; cited from earlier work
[3] = Distribution of isoflavones in lipoprotein subfractions of whole plasma; assay type: in vitro ADME
Method: Cpd. 1 ([…]), was incubated with whole plasma for 0 h, 4 h and 8 h. The different subfractions LDL/VLDL, HDL and protein (lipoprotein free) were then analysed for their Cpd. 1 concentration. Cpd. 1 was used because it had the most similar polarity to the isoflavone synthetic derivatives.

[4] = tested on: rat thoracic aorta; experiment: Contractile curves to noradrenaline in rat isolated aortic rings (Protocol 1); details: test compound 1 μg/ml
Method: (§1) Male Sprague-Dawley rats (250±50 g) were gassed with 80% CO2 and 20% O2 until killed. The thoracic aorta was excised and quickly placed in ice-cold Krebs modified solution composed of NaCl […], […] 4.7 mM, MgSO4 7H2O 1.17 mM, NaHCO3 25 mM, KH2PO4 1.18 mM, CaCl2 2.5 mM, glucose 11 mM and EDTA 0.03 mM. It was then trimmed of fat and connective tissue and cut into 2-3 mm wide rings. Each ring was mounted on two parallel stainless steel hooks in a single water-jacketed 3 ml organ bath containing modified Krebs solution maintained at 37° C. and bubbled with 95% O2 plus 5% CO2. The lower hook was attached to a movable support leg and the upper hook to an FTO3 force transducer (Grass Scientific Instruments, Mitutoyo, Japan) for isometric recordings. Changes in force were amplified (Quadbridge amplifier, Scientific Concepts Inc., Victoria, Australia) and recorded on a MacLab 8E data acquisition system (Adinstruments Pty Ltd., NSW, Australia) linked to an Apple computer (Apple Computer Inc, Cupertina, Calif.). Rings were set at an initial tension of 2 g and allowed to equilibrate for 30 minutes after which time they were re-set to 2 g tension before the commencement of each experimental protocol.
Full concentration-contractile curves were obtained to noradrenaline (0.1 nM-[…]) in the absence and presence of β-estradiol (1 μg/ml); Cpd. 5 (0.1 and 1 μg/ml); Cpd. 7 (0.1 and 1 μg/ml); Cpd. 8 (0.1 and 1 μg/ml) and Cpd. 12 (1 μg/ml) and the vehicle equi-volume DMSO. Only one compound at any one concentration was tested on any one ring from any one animal.
(§2) Contractile responses are expressed in g tension (mean+standard error of the mean). Dilatory responses are expressed as a percentage of the contractile force generated by the pre-constricting agent used. Individual concentration-response curves for noradrenaline and acetylcholine±the interventions used were fitted to a logistic equation of the form […] where E is the response, M is the maximum response and K is the concentration eliciting 50% of the maximum response (ie neg log EC50).

[5] = tested on: rat isolated aortic rings; experiment: Vasodilatory capacity in noradrenaline pre-constricted aortic rings and mechanism of action (Protocol 2a/2b)
Method: as §1
A full concentration response to noradrenaline was obtained. From this the concentration producing a submaximal contraction of approximately 80% was selected (0.03-0.3 μM). The ring was then constricted with this submaximal concentration and allowed to plateau before full concentration-relaxation curves were obtained to β-estradiol and Cpds. 5, 7, 8 and 12 and the vehicle DMSO (at equi-volume). Only one compound was studied with any one ring from any one animal.
Full relaxation curves were obtained to Cpds. 5, 7, 8 and 12 and β-estradiol in the absence and presence of the endothelium (rings were denuded of endothelium by gentle rotation of the lumen against a rough surface), the nitric oxide synthase inhibitor nitro-L-arginine (NOLA 10 μM; with the exception of Cpd. 8, due to limited supply of the compound), KCl 40 mM (to inhibit endothelium derived hyperpolarising factor), the cyclo-oxygenase inhibitor indomethacin (10 μM) and the soluble guanylate cyclase inhibitor 1H-[1,2,4]oxadiazolo[4,3-a]quinoxalin-1-one (ODQ; 10 μM). Only one compound with only one intervention was tested on any one ring from any one animal.
as §2

[6] = tested on: rat isolated aortic rings; experiment: Protection against endothelium damage induced by oxidised LDL, acetylcholine dilatation (Protocol 3); details: ox-LDL 0.3 mg protein/ml; β-estradiol 10 pg/ml, Cpd. 5 300 ng/ml, Cpd. 7 1 μg/ml, Cpd. 8 and 12 3 μg/ml
Method: as §1
Full concentration response curves to phenylephrine were constructed from which the concentration giving a submaximal contraction of approximately 80% was selected (usually 0.3 μM). Tissues were then constricted with phenylephrine at the selected concentration and allowed to plateau. Full concentration dilatory curves were then constructed to acetylcholine. […]
Human plasma was obtained from the blood bank. […] The protein content of the final LDL fraction obtained was determined by the simplified protein assay method of Lowry. […]
Contractile responses are expressed in g tension (mean+standard error of the mean). Dilatory responses are expressed as a percentage of the contractile force generated by the pre-constricting agent used. […]

[7] = tested on: IMA-derived human VSMC primed with PDGF BB; experiment: PDGF BB-induced VSMC DNA synthesis, proliferation and cell number; assay type: cell-based; details: Homo sapiens, VSMC, 3 h, read-out: inhibition of PDGF BB-induced DNA synthesis ([3H]-thymidine incorporation)
Method: Cell proliferation was induced by a variety of growth factors such as serum and platelet derived growth factor (PDGF).
Media was changed to LG serum-free DMEM and cells were treated with [^3H]-thymidine at 1 μCi/well for 3 hours. Cells were washed twice with ice cold Dulbecco's PBS. Next, ice cold 0.2M HClO4 (1 ml/well) was added and cells were incubated on ice for 30 min. Cells were then washed three times with 0.5 ml/well of ice cold 0.2M HClO4. Media (0.5 ml/well of 0.2 M NaOH) was replaced and cells were incubate at 37° C. After 1 hour, cells were treated with acetic acid (6%, 0.2 ml/well), transferred to scintillation vials with 3 ml scintillation liquid (Instagel) and counted for 2 min per vial.
The effect of Cpd. 5 and Cpd. 7 was tested further in IMA-derived human VSMC primed with PDGF BB instead of serum. […] (FIG. 12). This effect was equivalent to that observed with estradiol. Cpd.
In further experiments Cpd. […] 7 at 100 nmol/L), indicating ER-mediation. […] 7 (1-100 nmol/L).

For `O=c1c(-c2ccc(O)cc2)coc2cc(O)cc(O)c12` [Cpd. 3, genistein], the “% Increase in Time” value [1] is given as 0%, the “Lag Time” value [1] is given as 20 min and the “effect on blood lipid concentrations” value [2] is given as “no significant effect on blood lipid concentrations”.
With `O=c1c(-c2ccc(O)cc2)coc2cc(O)ccc12` [Cpd. 1, daidzein] the “amount associated with the lipoproteins, dependence on time and concentration” value [3] was “increased with time, but not with concentration”, the “% Increase in Time” value [1] was 0% and the “Lag Time” value [1] was 19 min.
In the case of `C[C@]12CC[C@@H]3c4ccc(O)cc4CC[C@H]3[C@@H]1CC[C@@H]2O` [β-estradiol, 1,3,5[10]-estratriene-3,17β-diol, reference compound], the “y max, Noradrenaline + Test compound (B)” value ([4]; mean ± SEM) is reported as 0.22 ± 0.12 g tension, the “y max Difference (A − B)” value ([4]; noradrenaline alone minus noradrenaline + compound) is reported as 2.1 ± 0.31 g tension and the “vasodilatory response: effect of high KCl levels” value ([5]; KCl 40 mM) is reported as “inhibited”. The “vasodilatory response: effect of nitro-L-arginine (NOLA)” value ([5]; NOLA 10 μM) was “inhibited”, the “vasodilatory response: effect of ODQ” value ([5]; ODQ 10 μM) was “inhibited” and the “vasodilatory response: effect of removal of the endothelium” value ([5]; denuded vs intact endothelium) was “inhibited”. The “vasodilatory response: effect of indomethacin” value ([5]; indomethacin 10 μM) was “did not influence”, the “protective effect against ox-LDL inhibition of acetylcholine dilatation (in words)” value [6] was “diminished the effect of ox-LDL” and the inhibition at 0.001 µM [7] was 27%. The inhibition at 0.01 µM [7] was 27% and the inhibition at 0.1 µM [7] was 33%.
For `COc1cc2c(=O)c(-c3ccc(O)cc3)coc2cc1O` [Glycitein], the “% Increase in Time” value [1] was 0% and the “Lag Time” value [1] was 20 min.
In the case of `COc1ccc(-c2coc3cc(O)cc(O)c3c2=O)cc1` [Biochanin], the “% Increase in Time” value [1] is reported as 0% and the “Lag Time” value [1] is reported as 20 min.
